Laboratory results reported in PMC10873254, “Preclinical evaluation of new GRPR-antagonists with improved metabolic stability for radiotheranostic use in oncology” (EJNMMI Radiopharmacy and Chemistry, 2024).
Like-named read-outs stand apart in the source and are kept apart here. Marks after values point to notes of the source that are not given here. Blank lines part the entries; values can stand above or below the compound they belong to.

Key:
GRPR = biological target: T1, GRPR (Homo sapiens, UniProt P30550); assay: GRPR binding affinity and kinetics on PC-3 cells (LigandTracer); details: 1-3 nM radioligand
T1 construct: host or cells: PC-3 human prostate adenocarcinoma cells
T1 sequence (P30550 whole entry): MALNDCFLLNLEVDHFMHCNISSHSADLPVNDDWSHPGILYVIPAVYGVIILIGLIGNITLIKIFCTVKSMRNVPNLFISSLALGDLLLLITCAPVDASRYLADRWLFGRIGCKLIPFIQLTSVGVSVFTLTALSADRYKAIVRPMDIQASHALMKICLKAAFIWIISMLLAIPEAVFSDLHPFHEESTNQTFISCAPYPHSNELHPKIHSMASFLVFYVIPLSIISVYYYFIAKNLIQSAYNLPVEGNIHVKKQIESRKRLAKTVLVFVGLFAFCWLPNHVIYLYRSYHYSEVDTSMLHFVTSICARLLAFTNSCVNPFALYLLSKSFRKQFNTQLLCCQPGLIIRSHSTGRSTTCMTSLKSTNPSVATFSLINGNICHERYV
Procedure: For evaluation of the receptor affinity and binding kinetics, PC-3 cells were seeded in 100 mm Nunc™ Petri dishes (Thermo Fisher, Waltham, MA, USA). A LigandTracer Yellow device (Ridgeview Instruments AB, Uppsala, Sweden) was used to measure the radiation from the Petri dish. Background with RPMI-1640 medium was measured for 30 min, after which 1 nM of radioligand was added and measured for 2 h. An additional concentration (3 nM) was measured for another 2 h, thereafter the medium was aspirated, replaced with fresh medium, and left running overnight to measure the dissociation rate. Data was fitted with the TracerDrawer software (Ridgeview Instruments AB, Uppsala, Sweden).

in vivo = assay: in vivo; set-up: species or system BALB/c nu/nu female mice; details: female, BALB/c nu/nu, mouse, iv, total radioactivity
Text: (§1) Animal experiments were planned and performed in accordance with national legislation on protection of laboratory animals, and protocols were approved by the Ethics Committee for Animal Research in Uppsala, Sweden (5.8.18–00473/2021). BALB/c nu/nu female mice were xenografted by subcutaneous injection of PC-3 cells on the hind leg (7 × 10^6 cells/mouse). At the date of the experiment, approximately 6 weeks after implantation, tumour sizes reached 0.11 ± 0.05 g. Groups of four mice were used for each time point. In the first group, mice were iv injected with test radiopeptide (30 kBq in 100 µL PBS supplemented with 1% bovine serum albumin (BSA), corresponding to 40 pmol) and euthanized at 4 h pi. Tumors and relevant organs were collected, weighted and sample radioactivity was measured using the gamma counter. In the case of [^111In]In-AU-SAR-M1 two additional mice groups underwent the same procedure but were euthanized either at 24 h pi, or at 4 h pi following radioligand co-injection with excess (5 nmol) NOTA-PEG2-RM26 to determine the in vivo GRPR-specificity. For statistical analysis Two-Way Anova with Tuckey’s post hock analysis was employed, using GraphPad Prism 7 for Windows® (GraphPad Software, Boston, Massachusetts USA).

PC-3 xenografts = assay: in vivo; set-up: species or system BALB/c nu/nu female mice; details: mouse
Text: as §1

[1] = 1:2 model for M1 and M3, 1:1 model for M2, read-out: KD1
[2] = 40 pmol, GI (gastrointestinal tract) uptake
[3] = 40 pmol, Small intestines uptake
[4] = 40 pmol, Tumor-to-kidneys ratio
[5] = 40 pmol, Tumor-to-pancreas ratio
[6] = female, BALB/c nu/nu, iv, 40 pmol, 4 h

Kd (GRPR; [1]): 390 pM
Kd (GRPR; 1:2 model, read-out: KD2): 1100 pM
tissue uptake at 4 h (in vivo; 40 pmol, Blood uptake): 0.08 ± 0.03 %ID/g
tissue uptake at 24 h (in vivo; 40 pmol, Blood uptake): 0.01 ± 0.001 %ID/g
tissue uptake at 4 h (in vivo; 40 pmol, Bone uptake): 0.3 ± 0.3 %ID/g
tissue uptake at 24 h (in vivo; 40 pmol, Bone uptake): 0.04 ± 0.02 %ID/g
tissue uptake dose at 4 h (in vivo; 40 pmol, Carcass uptake): 4 ± 2 %ID
tissue uptake dose at 24 h (in vivo; 40 pmol, Carcass uptake): 0.48 ± 0.07 %ID
tissue uptake dose at 4 h (in vivo; [2]): 2 ± 0.9 %ID
tissue uptake dose at 24 h (in vivo; [2]): 0.62 ± 0.49 %ID
tissue uptake at 4 h (in vivo; 40 pmol, Kidneys uptake): 3.1 ± 0.3 %ID/g
tissue uptake at 24 h (in vivo; 40 pmol, Kidneys uptake): 2.38 ± 0.14 %ID/g
tissue uptake at 4 h (in vivo; 40 pmol, Liver uptake): 0.2 ± 0.1 %ID/g
tissue uptake at 24 h (in vivo; 40 pmol, Liver uptake): 0.09 ± 0.01 %ID/g
tissue uptake at 4 h (in vivo; 40 pmol, Lungs uptake): 0.2 ± 0.2 %ID/g
tissue uptake at 24 h (in vivo; 40 pmol, Lungs uptake): 0.04 ± 0.003 %ID/g
tissue uptake at 4 h (in vivo; 40 pmol, Muscle uptake): 0.09 ± 0.06 %ID/g
tissue uptake at 24 h (in vivo; 40 pmol, Muscle uptake): 0.02 ± 0.01 %ID/g
tissue uptake at 4 h (in vivo; 40 pmol, Pancreas uptake): 2 ± 1 %ID/g
tissue uptake at 24 h (in vivo; 40 pmol, Pancreas uptake): 0.12 ± 0.03 %ID/g
tissue uptake at 4 h (in vivo; [3]): 0.8 ± 0.5 %ID/g
tissue uptake at 24 h (in vivo; [3]): 0.07 ± 0.03 %ID/g
tissue uptake at 4 h (in vivo; 40 pmol, Spleen uptake): 0.12 ± 0.05 %ID/g
tissue uptake at 24 h (in vivo; 40 pmol, Spleen uptake): 0.1 ± 0.04 %ID/g
tissue uptake at 4 h (in vivo; 40 pmol, Tumor uptake): 11 ± 1 %ID/g
tissue uptake at 24 h (in vivo; 40 pmol, Tumor uptake): 6.3 ± 0.8 %ID/g
tissue to tissue ratio at 4 h (in vivo; 40 pmol, Tumor-to-blood ratio): 160
tissue to tissue ratio at 24 h (in vivo; 40 pmol, Tumor-to-blood ratio): > 550
tissue to tissue ratio (in vivo; 40 pmol, Tumor-to-bone ratio): > 150
tissue to tissue ratio at 4 h (in vivo; 40 pmol, Tumor-to-bone ratio): 74 ± 68
tissue to tissue ratio at 24 h (in vivo; 40 pmol, Tumor-to-bone ratio): 173 ± 72
tissue to tissue ratio at 4 h (in vivo; [4]): 3.6 ± 0.2
tissue to tissue ratio at 24 h (in vivo; [4]): 2.7 ± 0.2
tissue to tissue ratio at 4 h (in vivo; 40 pmol, Tumor-to-liver ratio): 65 ± 22
tissue to tissue ratio at 24 h (in vivo; 40 pmol, Tumor-to-liver ratio): 67 ± 6
tissue to tissue ratio at 4 h (in vivo; 40 pmol, Tumor-to-lungs ratio): 68 ± 39
tissue to tissue ratio at 24 h (in vivo; 40 pmol, Tumor-to-lungs ratio): 174 ± 29
tissue to tissue ratio at 4 h (in vivo; 40 pmol, Tumor-to-muscle ratio): 167 ± 102
tissue to tissue ratio at 24 h (in vivo; 40 pmol, Tumor-to-muscle ratio): 375 ± 95
tissue to tissue ratio at 4 h (in vivo; [5]): 9 ± 11
tissue to tissue ratio at 24 h (in vivo; [5]): 57 ± 18
tissue to tissue ratio at 4 h (in vivo; 40 pmol, Tumor-to-spleen ratio): 61 ± 19
tissue to tissue ratio at 24 h (in vivo; 40 pmol, Tumor-to-spleen ratio): 70 ± 20
tissue uptake dose at 4 h (in vivo; Carcass uptake): 1.1 ± 0.6 %ID
tissue uptake dose at 4 h (in vivo; GI (gastrointestinal tract) uptake): 1.5 ± 0.3 %ID
Tumor-to-blood ratio (PC-3 xenografts; [6]): 141 ± 61^a
Tumor-to-pancreas ratio (PC-3 xenografts; [6]): 8 ± 7
Tumor-to-blood ratio (PC-3 xenografts; female, BALB/c nu/nu, iv, 40 pmol, 24 h): 557 ± 58^ a
Decrease of tumor uptake from 4 h to 24 h pi (PC-3 xenografts): ~40%
Increase of tumor-to-muscle ratio from 4 h to 24 h pi (PC-3 xenografts): about 1.8 fold
Initial pancreas uptake remaining at 24 h pi (PC-3 xenografts): 5%
Tumor uptake at 24 h pi as % of the 4 h pi value (PC-3 xenografts): 57%
Compound: CCNC(=O)[C@H](CC(C)C)NC(=O)[C@H](Cc1c[nH]cn1)NC(=O)CN(C)C(=O)[C@@H](NC(=O)[C@H](C)NC(=O)[C@H](Cc1c[nH]c2ccccc12)NC(=O)[C@H](CCC(N)=O)NC(=O)[C@@H](Cc1ccccc1)NC(=O)COCC(=O)Nc1ccc(CNC(=O)CCC(C(=O)O)N2CCN(CC(=O)O)CCN(CC(=O)O)CCN(CC(=O)O)CC2)cc1)C(C)C (stereo partly drawn) [[^111In]In-AU-SAR-M1, [^111In]In-DOTAGA-AMA-DIG-DPhe-Gln-Trp-Ala-Val-Sar-His-Leu-NHEt, metal not drawn]

Kd (GRPR; [1]): 31 pM
tissue uptake at 4 h (in vivo; 40 pmol, Blood uptake): 0.08 ± 0.01 %ID/g
tissue uptake at 4 h (in vivo; 40 pmol, Bone uptake): 0.23 ± 0.04 %ID/g
tissue uptake dose at 4 h (in vivo; 40 pmol, Carcass uptake): 4 ± 2 %ID
tissue uptake dose at 4 h (in vivo; [2]): 2.9 ± 0.3 %ID
tissue uptake at 4 h (in vivo; 40 pmol, Kidneys uptake): 3.4 ± 0.4 %ID/g
tissue uptake at 4 h (in vivo; 40 pmol, Liver uptake): 0.3 ± 0.1 %ID/g
tissue uptake at 4 h (in vivo; 40 pmol, Lungs uptake): 0.2 ± 0.1 %ID/g
tissue uptake at 4 h (in vivo; 40 pmol, Muscle uptake): 0.09 ± 0.04 %ID/g
tissue uptake at 4 h (in vivo; 40 pmol, Pancreas uptake): 9 ± 2 %ID/g
tissue uptake at 4 h (in vivo; [3]): 2.4 ± 0.9 %ID/g
tissue uptake at 4 h (in vivo; 40 pmol, Spleen uptake): 0.3 ± 0.1 %ID/g
tissue uptake at 4 h (in vivo; 40 pmol, Tumor uptake): 12.7 ± 0.8 %ID/g
tissue to tissue ratio at 4 h (in vivo; 40 pmol, Tumor-to-blood ratio): 159 ± 32
tissue to tissue ratio at 4 h (in vivo; 40 pmol, Tumor-to-bone ratio): 58 ± 12
tissue to tissue ratio at 4 h (in vivo; [4]): 3.8 ± 0.6
tissue to tissue ratio at 4 h (in vivo; 40 pmol, Tumor-to-liver ratio): 47 ± 14
tissue to tissue ratio at 4 h (in vivo; 40 pmol, Tumor-to-lungs ratio): 63 ± 22
tissue to tissue ratio at 4 h (in vivo; 40 pmol, Tumor-to-muscle ratio): 161 ± 74
tissue to tissue ratio at 4 h (in vivo; [5]): 1.4 ± 0.3
tissue to tissue ratio at 4 h (in vivo; 40 pmol, Tumor-to-spleen ratio): 46 ± 11
Tumor-to-small intestines ratio (PC-3 xenografts): 6 ± 2
Compound: CCNC(=O)[C@H](CC(C)C)NC(=O)[C@H](Cc1c[nH]cn1)NC(=O)CN(C)C(=O)[C@@H](NC(=O)[C@H](C)NC(=O)[C@H](Cc1c[nH]c2ccccc12)NC(=O)[C@H](CCC(N)=O)NC(=O)[C@@H](Cc1ccccc1)NC(=O)COCC(=O)Nc1ccc(CNC(=O)[C@H](CCCNC(=N)N)NC(=O)CCC(C(=O)O)N2CCN(CC(=O)O)CCN(CC(=O)O)CCN(CC(=O)O)CC2)cc1)C(C)C (stereo partly shown) [[^111In]In-AU-SAR-M2, [^111In]In-[DOTAGA-Arg]AU-SAR-M1, metal not drawn]

Compound: CCNC(=O)[C@H](CC(C)C)NC(=O)[C@H](Cc1c[nH]cn1)NC(=O)CN(C)C(=O)[C@@H](NC(=O)[C@H](C)NC(=O)[C@H](Cc1c[nH]c2ccccc12)NC(=O)[C@H](CCC(N)=O)NC(=O)[C@@H](Cc1ccccc1)NC(=O)COCC(=O)Nc1ccc(CNC(=O)[C@@H](CCCNC(=N)N)NC(=O)CCC(C(=O)O)N2CCN(CC(=O)O)CCN(CC(=O)O)CCN(CC(=O)O)CC2)cc1)C(C)C (stereo partly shown) [[^111In]In-AU-SAR-M3, [^111In]In-[DOTAGA-DArg]AU-SAR-M1, metal not drawn]
Kd (GRPR; [1]): 300 pM
Kd (GRPR; read-out: KD2, 1:2 model): 1100 pM
tissue uptake at 4 h (in vivo; 40 pmol, Blood uptake): 0.05 ± 0.01 %ID/g
tissue uptake at 4 h (in vivo; 40 pmol, Bone uptake): 0.17 ± 0.04 %ID/g
tissue uptake dose at 4 h (in vivo; 40 pmol, Carcass uptake): 2.1 ± 0.2 %ID
tissue uptake dose at 4 h (in vivo; [2]): 0.7 ± 0.2 %ID
tissue uptake at 4 h (in vivo; 40 pmol, Kidneys uptake): 5 ± 0.5 %ID/g
tissue uptake at 4 h (in vivo; 40 pmol, Liver uptake): 0.25 ± 0.02 %ID/g
tissue uptake at 4 h (in vivo; 40 pmol, Lungs uptake): 0.15 ± 0.03 %ID/g
tissue uptake at 4 h (in vivo; 40 pmol, Muscle uptake): 0.07 ± 0.03 %ID/g
tissue uptake at 4 h (in vivo; 40 pmol, Pancreas uptake): 0.5 ± 0.1 %ID/g
tissue uptake at 4 h (in vivo; [3]): 0.2 ± 0.2 %ID/g
tissue uptake at 4 h (in vivo; 40 pmol, Spleen uptake): 0.18 ± 0.03 %ID/g
tissue uptake at 4 h (in vivo; 40 pmol, Tumor uptake): 6.7 ± 0.3 %ID/g
tissue to tissue ratio at 4 h (in vivo; 40 pmol, Tumor-to-blood ratio): 147 ± 43
tissue to tissue ratio at 4 h (in vivo; 40 pmol, Tumor-to-bone ratio): 41 ± 9
tissue to tissue ratio at 4 h (in vivo; [4]): 1.4 ± 0.1
tissue to tissue ratio at 4 h (in vivo; 40 pmol, Tumor-to-liver ratio): 27 ± 3
tissue to tissue ratio at 4 h (in vivo; 40 pmol, Tumor-to-lungs ratio): 47 ± 14
tissue to tissue ratio at 4 h (in vivo; 40 pmol, Tumor-to-muscle ratio): 107 ± 63
tissue to tissue ratio at 4 h (in vivo; [5]): 14 ± 3
tissue to tissue ratio at 4 h (in vivo; 40 pmol, Tumor-to-spleen ratio): 39 ± 8
Tumor-to-small intestines ratio (PC-3 xenografts): 25 ± 7
